Assay results taken from patent US7255796B2, “Method of preventing hydrogen sulfide odor generation in an aqueous medium” (General Electric Company, priority 2004, dated 2007).
Marks after values point to notes of the source that are not given here.

Columns and labels:
[1] = system: sulfate reducing bacteria (SRB); assay: Serum bottle test: SRB growth after treatment (toxicity); assay type: cell-based, sulfate reducers
Protocol: (§1) The test protocol was as follows: 100 mL serum bottles were filled with synthetic nutrient medium, then stoppered, capped, and autoclaved, and allowed to cool to at least 35C. Using a 1 mL syringe with needle, the treatment was added at desired dosages to prepared serum bottles (triplicates of each dosage). No treatment was added for baseline controls. At least 6 baseline serum bottles were used. Using a 1 mL syringe with needle, 0.1 mL of prepared culture was added to each serum bottle.
(§2) Next, a 10^10 cells/ml concentration of the sulfate reducers was prepared (using autoclaved synthetic nutrient medium) inside an anaerobic chamber. Using a 1 ml syringe with needle, 0.1 ml of the prepared sulfate reducers culture was added to each serum bottle. The bottles were then incubated at the desired temperature.
(§3) The baseline dissolved sulfide levels were then measured to determine if the samples were ready for efficacy analysis. Using a 30 mL syringe with needle, 30 mL of sample was removed from each serum bottle. About 25 mL of the sample was added to a 30 mL bottle containing 0.125 mL zinc acetate solution, followed by adding 1 mL of 1N NaOH. The sulfide in the fixed sample was then measured. The remaining 5 mL of sample in the syringe was used for pH determination. Separate field studies were also conducted.

[2] = Serum bottle test: medium pH after treatment; assay type: physicochemical
Protocol: as §1, §2, §3

[3] = system: microorganisms (PetriFilm Count); assay: Serum bottle test: PetriFilm count after treatment (toxicity); assay type: cell-based
Protocol: as §1, §2, §3

[4] = system: real municipal wastewater; assay: H2S inhibition using real municipal wastewater, Field Study 2
[5] = system: real municipal wastewater; assay: H2S inhibition using real municipal wastewater, Field Study 1
[6] = scavenger dosage 200 ppm active
[7] = Field Study 2, scavenger dosage 10 ppm active
[8] = Field Study 1, scavenger dosage 10 ppm active

O=CCCCC=O [Glutaraldehyde, reference compound]
SRB Growth after Treatment [1, 6]: 0 | Medium pH after Treatment [2, 6]: 7.5 | PetriFilm Count after Treatment [3, 6]: 0

O=CC=O [Glyoxal, glyoxal]
SRB Growth after Treatment ([1]; scavenger dosage 8 ppm active): 10^8 | Medium pH after Treatment ([2]; scavenger dosage 8 ppm active): 6.5 | Head Space H2S ([4]; Field Study 2, scavenger dosage 0.5 ppm active): 47 ppm | Head Space H2S ([4]; Field Study 2, scavenger dosage 4.0 ppm active): 12 ppm | Head Space H2S ([4]; Field Study 2, scavenger dosage 6.0 ppm active): 0.1 ppm | Head Space H2S ([4]; Field Study 2, scavenger dosage 8.0 ppm active): 0.1 ppm | Head Space H2S [4, 7]: 5.0* ppm | PetriFilm Count after Treatment ([3]; scavenger dosage 8 ppm active): 8.3 × 10^8 | Head Space H2S ([5]; Field Study 1, scavenger dosage 0.3 ppm active): 27 ppm | Head Space H2S ([5]; Field Study 1, scavenger dosage 3.8 ppm active): 8 ppm | Head Space H2S ([5]; Field Study 1, scavenger dosage 6.0 ppm active): 7 ppm | Head Space H2S ([5]; Field Study 1, scavenger dosage 8 ppm active): 2 ppm | Head Space H2S [5, 8]: 0.5 ppm

O=[N+]([O-])[O-].O=[N+]([O-])[O-].[Mg+2] [Mg(NO3)2, magnesium nitrate, reference compound]
Head Space H2S [4, 7]: 47 ppm | Head Space H2S [5, 8]: 27 ppm

c1ncncn1 [Triazine, triazine]
SRB Growth after Treatment ([1]; scavenger dosage 8 ppm active): 10^8 | Medium pH after Treatment ([2]; scavenger dosage 8 ppm active): 6.5 | PetriFilm Count after Treatment ([3]; scavenger dosage 8 ppm active): 5.5 × 10^8
